Tested on: flexor reflex in normal anesthetized rats
Assay: Flexor reflex in normal anesthetized rats (FIG. 3)
Type: in vivo, rat
Conditions: in comparison to baclofen, FIG. 3 legend only, values not given
Source text: Baclofen, diazepam (Valium), and tizanidine are effective on different parameters of spasticity (EMG recordings, H-reflex, the H/M ratio, mono- and polysynaptic reflexes, clonus, hyperreflexia) in these models. The flexor reflex is a polysynaptic response elicited by stimulation of the bottom of the foot and models the withdrawal reflex.

## NC(=O)CC(c1cccc(F)c1)c1cccc(F)c1 [Compound 1, 3,3-bis(3-fluorophenyl)propanamide]
  reduction in the flexor reflex: reduction in the flexor reflex

— patent publication US6617358B1, “Anticonvulsant and central nervous system-depressing bis(fluorophenyl)alkylamides and their uses” (NPS Pharmaceuticals, Inc., priority 1997, dated 2003)
